Laboratory results: ChEMBL document CHEMBL5360639, “Cannabidiol Analogue CIAC001 for the Treatment of Morphine-Induced Addiction by Targeting PKM2” (J Med Chem, 2023)
The source made the active and inactive calls. The calls are words filed in the database; no cut-off is given here.

Assays:
[1] = Cytotoxicity against mouse BV-2 cells assessed as reduction in cell viability by crystal violet staining based assay; format: toxicity
[2] = Therapeutic index, ratio of IC50 for cytotoxicty against mouse BV-2 cells assessed as reduction in cell viability by crystal violet staining based assay to IC50 for nti-neuroinflammatory activity in mouse BV-2 cells assessed as inhibition of LPS-induced NO production; format: toxicity; settings: read-out: Ratio IC50
BV-2 [3] = assay: Anti-neuroinflammatory activity in mouse BV-2 cells assessed as inhibition of LPS-induced NO production incubated for 24 hrs by microplate reader analysis; format: functional, cell-based; settings: BV-2, 24 h
BV-2 [4] = assay: Anti-neuroinflammatory activity in LPS-induced mouse BV-2 cells assessed as reduction in IL-6 mRNA expression at 1 to 10 uM by qRT-PCR analysis; format: functional, cell-based; settings: dose 1-10 µM
[5] = MRT in BALB/c mouse at 10 mg/kg, po measured upto 4 hrs by mS-HPLC analysis; format: ADME, organism-based; settings: in vivo
[6] = Cmax in BALB/c mouse at 10 mg/kg, po measured upto 4 hrs by mS-HPLC analysis; format: ADME, organism-based; parameters: time < 4 hrs, dose 10 mg/kg, route po; settings: in vivo
Mus musculus [7] = assay: Anti-neuroinflammatory activity in morphine-induced BALB/c mouse assessed as inhibition of behavioral sensitization at 0.2 mg/kg, ip administered once daily for 7 days; format: functional, organism-based; settings: time 7.0 day
[8] = Half life in BALB/c mouse at 10 mg/kg, po measured upto 4 hrs by mS-HPLC analysis; format: ADME, organism-based; settings: in vivo
BV-2 [9] = assay: Anti-neuroinflammatory activity in LPS-induced mouse BV-2 cells assessed as reduction in IL-1beta mRNA expression at 10 uM by qRT-PCR analysis; format: functional, cell-based
[10] = Ratio of drug concentration in blood to plasma in BALB/c mouse at 10 mg/kg, po measured at 3 hrs; format: ADME, organism-based; settings: in vivo
[11] = AUC (0 to t) in BALB/c mouse at 10 mg/kg, po measured upto 4 hrs by mS-HPLC analysis; format: ADME, organism-based; settings: in vivo
BV-2 [12] = assay: Anti-neuroinflammatory activity in LPS-induced mouse BV-2 cells assessed as reduction in TNF-alpha mRNA expression at 1 to 10 uM by qRT-PCR analysis; format: functional, cell-based; settings: dose 1-10 µM
Mus musculus [13] = assay: Anti-neuroinflammatory activity in naloxone precipitated morphine-induced BALB/c mouse assessed as reduction in naloxone precipitated withdrawal jumps at 0.2 microg/kg, ip administered with morphine 3 times daily for 3 days and on day 4 for 3 hrs prior to compound addition for 30 mins before naloxone addition and measured after 15 mins; format: functional, organism-based; settings: dose 0.2 µg/kg, time 45.0 min
Mus musculus [14] = assay: Anti-neuroinflammatory activity in morphine-induced BALB/c mouse assessed as […] in locomotor activity 0.2 mg/kg, ip administered once daily for 7 days and measured after 60 mins; format: functional, organism-based; settings: time 169.0 hrs

Compound: C=C(C)[C@@H]1CCC(C)=C[C@H]1c1c(O)cc(CCCCCCCCCCCC)cc1O
- IC50 [1]: > 200 µM

Compound: C=CCOc1cc(CCCCC)cc(OCC=C)c1[C@@H]1C=C(C)CC[C@H]1C(=C)C
- IC50 [1]: > 200 µM

Compound: C=C(C)[C@@H]1CCC(C)=C[C@H]1c1c(O)cc(CCCCCCCC)cc1O
- IC50 [1]: 26.2 µM
- selectivity ratio [2]: 0.2

Compound: C=C(C)[C@@H]1CCC(C)=C[C@H]1c1c(OCCC)cc(CCCCC)cc1OCCC
- IC50 [1]: > 200 µM

Compound: C=C(C)[C@@H]1CCC(C)=C[C@H]1c1c(O)cc(CCCCCC)cc1O
- IC50 [1]: 19 µM
- IC50 (BV-2 [3]): 2.1 µM
- selectivity ratio [2]: 9

Compound: C=C(C)[C@@H]1CCC(C)=C[C@H]1c1c(OCC)cc(CCCCC)cc1OCC
- IC50 [1]: > 200 µM

Compound: C=C(C)[C@@H]1CCC(C)=C[C@H]1c1c(O)cc(CCCCC)cc1O [CANNABIDIOL]
- IC50 [1]: 8.5 µM
- Activity (BV-2 [4]): inactive
- IC50 (BV-2 [3]): 12.3 µM
- selectivity ratio [2]: 0.7
- MRT [5]: 42 min
- Cmax [6]: 98.1 ng/g
- Activity (Mus musculus [7]): inactive
- half-life [8]: 30 min
- Activity (BV-2 [9]): inactive
- Ratio [10]: < 100%
- AUCt [11]: 66.7 ng·h/g
- Activity (BV-2 [12]): inactive
- Activity (Mus musculus [13]): inactive
- Activity (Mus musculus [14]): inactive

Compound: C=C(C)[C@@H]1CCC(C)=C[C@H]1c1c(O)cc(CCCCC)cc1OC
- IC50 [1]: 58.2 µM
- IC50 (BV-2 [3]): 37.2 µM
- selectivity ratio [2]: 1.6

Compound: C=C(C)[C@@H]1CCC(C)=C[C@H]1c1c(O)cc(CCCCC)cc1OCCC
- IC50 [1]: > 200 µM

Compound: C=C(C)[C@@H]1CCC(C)=C[C@H]1c1c(O)cc(CCC)cc1O [CANNABIDIVARIN]
- IC50 [1]: 18.3 µM
- IC50 (BV-2 [3]): 5.3 µM
- selectivity ratio [2]: 3.5

Compound: C=C(C)[C@@H]1CCC(C)=C[C@H]1c1c(O)cc(CCCCCCC)cc1O
- IC50 [1]: 14.1 µM
- IC50 (BV-2 [3]): 42 µM
- selectivity ratio [2]: 0.3
